The supplement of paper PMC10307832

What was measured:
Experiment in all cases: relative viability (nuclei count vs DMSO), 5 days (fraction); higher = more cells survive
[1] = compound: Cc1ccc(Nc2nccc(N(C)c3ccc4c(C)n(C)nc4c3)n2)cc1S(N)(=O)=O [Pazopanib] + COc1cccc2cc(-c3nc([C@H]4CC[C@H](C(=O)O)CC4)n4ncnc(N)c34)[nH]c12 [OSI-027] (partner 0.5 µM)
Outline: (§1)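 Values are medians from duplicate plates. Each reflects relative viability, defined as the nuclei count of treated wells over that of vehicle wells. Lung cancer cell lines in 1536-well plates were pin-tool dosed one day after seeding with one drug alone or with a fixed anchor-drug dose plus five library-drug doses (not always all listed) in √10 steps, then fixed, stained and imaged at 4× after 5 days.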

[2] = compound: Cc1ccc(Nc2nccc(N(C)c3ccc4c(C)n(C)nc4c3)n2)cc1S(N)(=O)=O [Pazopanib] + CS(=O)(=O)CCNCc1ccc(-c2ccc3ncnc(Nc4ccc(OCc5cccc(F)c5)c(Cl)c4)c3c2)o1 [Lapatinib] (partner 2 µM)
Outline: as §1

[3] = compound: Cc1ccc(Nc2nccc(N(C)c3ccc4c(C)n(C)nc4c3)n2)cc1S(N)(=O)=O [Pazopanib] + Nc1nc2[nH]cc(CCc3ccc(C(=O)N[C@@H](CCC(=O)O)C(=O)O)cc3)c2c(=O)[nH]1 [Pemetrexed] (partner 0.2 µM)
Outline: as §1

[4] = compound: Cc1ccc(C(=O)Nc2ccc(CN3CCN(C)CC3)c(C(F)(F)F)c2)cc1C#Cc1cnc2cccnn12 [Ponatinib] + COc1cc2c(Oc3ccc(NC(=O)C4(C(=O)Nc5ccc(F)cc5)CC4)cc3F)ccnc2cc1OCCCN1CCOCC1 [Foretinib] (partner 0.25 µM)
Outline: as §1

Cell Line | relative viability ([1]; first compound 0.01 µM) | relative viability ([1]; first compound 0.03162 µM) | relative viability ([1]; first compound 0.1 µM) | relative viability ([1]; first compound 0.3162 µM) | relative viability ([1]; first compound 1 µM) | relative viability ([2]; first compound 0.03162 µM) | relative viability ([2]; first compound 0.1 µM) | relative viability ([2]; first compound 0.3162 µM) | relative viability ([2]; first compound 1 µM) | relative viability ([3]; first compound 0.03162 µM) | relative viability ([3]; first compound 0.1 µM) | relative viability ([3]; first compound 0.3162 µM) | relative viability ([3]; first compound 1 µM) | relative viability ([4]; first compound 0.002 µM) | relative viability ([4]; first compound 0.006325 µM) | relative viability ([4]; first compound 0.06325 µM) | relative viability ([4]; first compound 0.2 µM) | relative viability ([2]; first compound 0.01 µM) | relative viability ([3]; first compound 0.01 µM)
LCLC-97TM1 | 0.5 | 0.601 | 0.523 | 0.528 | 0.513 | 0.613 | 0.974 | 1.52 | 0.918 | 0.165 | 0.136 | 0.157 | 0.154 | 0.915 | 0.967 | 0.944 | 0.675 |  | 
LK-2 | 0.199 | 0.228 | 0.185 | 0.233 | 0.171 | 0.804 | 0.959 | 1 | 0.952 | 0.243 | 0.256 | 0.346 | 0.201 |  | 1.07 | 0.687 | 0.739 | 0.764 | 0.218
LOU-NH91 | 0.701 | 0.753 | 0.719 | 0.781 | 0.728 | 0.744 | 0.748 | 0.759 | 0.872 | 0.356 | 0.417 | 0.416 | 0.352 | 0.929 | 0.98 | 0.996 | 0.931 | 0.646 | 0.367
LU99A | 0.29 | 0.315 | 0.334 | 0.349 | 0.301 | 0.978 | 0.992 | 1.12 | 1.07 | 0.19 | 0.182 | 0.185 | 0.136 | 0.781 | 0.928 | 0.876 | 0.774 | 0.727 | 
LXF-289 | 0.815 | 0.774 | 0.805 | 0.77 | 0.843 | 0.935 | 0.902 | 0.909 | 0.897 | 0.899 | 0.904 | 0.845 | 0.848 | 0.92 | 0.952 | 0.96 | 0.943 | 0.908 | 1.01
NCI-H23 | 0.559 | 0.617 | 0.648 | 0.643 | 0.637 | 1.3 | 1.41 | 1.09 | 1.14 | 0.727 | 0.702 | 0.658 | 0.829 | 0.949 | 1.04 | 1.04 | 0.832 | 0.887 | 0.529
NCI-H322M | 0.531 | 0.646 | 0.533 | 0.636 | 0.607 | 0.645 | 0.653 | 0.632 | 0.618 | 0.662 | 0.633 | 0.623 | 0.658 | 0.956 | 0.976 | 1.02 | 0.814 | 0.587 | 0.703
NCI-H358 | 0.843 | 0.999 | 0.828 |  | 1.03 | 0.53 | 0.356 | 0.442 | 0.489 | 0.167 | 0.168 | 0.165 | 0.161 | 0.734 | 0.731 | 1.02 | 0.784 | 0.482 | 0.179
NCI-H460 | 0.601 | 0.912 | 0.645 | 0.665 | 0.725 | 1.06 | 1.04 | 0.946 | 1.15 | 0.0636 | 0.0629 | 0.0703 | 0.0742 | 0.92 | 0.938 | 1 | 0.967 | 1.05 | 0.0583
NCI-H520 | 0.271 | 0.268 | 0.259 | 0.301 | 0.262 | 0.96 | 0.766 | 0.859 | 0.921 | 0.728 | 0.768 | 0.755 | 0.602 | 0.628 | 0.786 | 0.496 | 0.596 |  | 0.642
NCI-H596 |  | 0.74 | 0.568 | 0.879 | 0.632 | 1.03 | 1.03 | 0.981 | 1.17 | 0.494 | 0.478 | 0.522 | 0.528 | 0.732 | 0.753 | 0.851 | 0.721 | 0.931 | 0.472
NCI-H647 | 0.594 | 0.688 | 0.723 | 0.902 | 0.739 | 1.21 | 1.17 | 1.08 | 1.16 | 0.159 | 0.164 | 0.153 | 0.177 | 1.12 | 1.01 | 1.24 | 1.08 | 0.87 | 0.174
NCI-H650 | 0.464 | 0.523 | 0.517 | 0.544 | 0.482 | 1.08 | 0.933 | 0.909 | 1.36 | 0.922 | 0.863 | 0.884 | 0.798 | 0.968 | 1.03 | 1.02 | 0.884 | 0.814 | 0.871
NCI-H661 | 0.669 | 0.784 | 0.745 | 0.689 | 0.735 | 0.629 | 0.476 | 0.431 | 0.648 | 0.938 | 0.969 | 0.955 | 0.861 | 1.03 | 0.98 | 0.993 | 0.998 | 0.538 | 0.863
NCI-H838 | 0.435 | 0.488 | 0.373 | 0.42 | 0.555 | 1.09 | 0.97 | 1.02 | 1.13 | 0.231 | 0.265 | 0.252 | 0.227 | 1.02 | 1.03 | 1.05 | 0.955 | 0.961 | 0.272
NCI-H1355 | 0.37 | 0.441 | 0.396 | 0.423 | 0.477 | 0.845 | 0.93 | 0.989 | 1.17 | 1.02 | 1.1 | 1.02 | 1.08 | 0.988 | 0.943 | 1.1 | 0.971 |  | 0.84
NCI-H1395 | 0.606 | 0.741 | 0.605 | 0.616 | 0.706 | 1.27 | 0.981 | 1.05 | 1.1 | 0.83 | 0.886 | 0.938 | 0.932 | 0.903 | 0.996 | 0.945 | 0.904 | 0.788 | 0.744
NCI-H1437 | 0.901 | 0.879 | 0.998 | 0.907 | 1.05 | 0.877 | 0.823 | 0.815 | 0.785 | 0.333 | 0.328 | 0.296 | 0.321 | 1.22 | 1.22 | 1.31 | 1.28 | 0.919 | 0.327
NCI-H1563 | 0.716 | 0.802 | 0.788 | 0.802 | 0.734 | 1 | 0.997 | 1.09 | 1.16 | 0.805 | 0.691 | 0.876 | 0.81 | 0.881 | 0.863 | 0.955 | 0.854 | 0.75 | 0.707
NCI-H1650 | 0.727 | 0.759 | 0.744 | 0.803 | 0.699 | 0.868 | 0.718 | 0.82 | 0.895 | 0.376 | 0.364 | 0.403 | 0.369 | 1.36 | 1.07 | 1.55 | 1.31 | 0.693 | 0.34
NCI-H1651 | 0.66 | 0.742 | 0.728 | 0.715 | 0.871 | 0.876 | 0.885 | 0.857 | 1.12 | 0.603 | 0.574 | 0.542 | 0.583 | 0.765 | 0.777 | 0.888 | 0.814 | 0.76 | 0.6
NCI-H1666 | 0.86 | 0.953 | 0.882 | 0.866 | 0.948 | 0.677 | 0.718 | 0.763 | 0.972 | 0.834 | 0.92 | 0.72 | 0.847 | 0.967 | 0.988 | 1.06 | 0.886 | 0.644 | 0.932
NCI-H1734 | 0.56 | 0.555 | 0.558 | 0.567 | 0.605 | 0.777 | 1.13 | 1.18 | 1.09 | 0.396 | 0.468 | 0.436 | 0.432 | 0.73 | 0.895 | 0.821 | 0.809 | 0.837 | 0.435
NCI-H1755 | 0.693 | 0.653 | 0.671 | 0.678 | 0.632 | 0.993 | 1.02 | 1.02 | 1.02 | 0.427 | 0.458 | 0.456 | 0.42 | 0.818 | 0.913 | 0.92 | 0.804 | 0.943 | 0.438
NCI-H1793 |  | 0.254 | 0.274 | 0.354 | 0.273 | 0.705 | 0.525 | 0.755 | 0.852 | 0.864 | 0.949 | 0.76 | 1.09 | 0.749 | 0.696 | 0.707 | 0.539 |  | 
NCI-H1915 | 0.61 | 0.659 | 0.626 | 0.588 | 0.64 | 1.03 | 1.01 | 0.976 | 0.941 | 0.442 | 0.472 | 0.467 | 0.474 | 1.03 | 1.12 | 0.996 | 1.01 | 0.898 | 0.509
NCI-H1944 |  | 0.422 | 0.46 | 0.441 | 0.48 | 0.84 | 0.949 | 0.923 | 0.953 | 0.635 | 0.67 | 0.724 | 0.603 | 0.876 | 0.856 | 1.05 | 0.859 | 0.561 | 0.562
NCI-H1975 | 0.677 | 0.723 | 0.861 | 0.735 | 0.734 | 0.822 | 0.875 | 0.873 | 0.907 | 0.296 | 0.285 | 0.299 | 0.258 | 0.911 | 0.955 | 1.03 | 1.01 | 0.798 | 0.294
